Measurements published in US20140073639A1 (priority 2012, published 2014).

Tests used:
S. MRSA = experiment: microbe, parasite or virus in culture; assay type: cell-based; conditions: for inhibition at 10 µM / inhibition at 30 µM / inhibition at 3 µM: Staphylococcus aureus, MRSA; for inhibition at 10 µM: read-out: S. MRSA 10 μM (growth inhibition); for inhibition at 30 µM: read-out: S. MRSA 30 μM (growth inhibition); for inhibition at 3 µM: read-out: S. MRSA 3 μM (growth inhibition)
B. Anthracis = experiment: microbe, parasite or virus in culture; assay type: cell-based; conditions: for inhibition at 10 µM / inhibition at 30 µM / inhibition at 3 µM: Bacillus anthracis; for inhibition at 10 µM: read-out: B. Anthracis 10 μM (growth inhibition); for inhibition at 30 µM: read-out: B. Anthracis 30 μM (growth inhibition); for inhibition at 3 µM: read-out: B. Anthracis 3 μM (growth inhibition)

O=C1NC(=S)NC(=O)C1=Cc1ccc(-c2ccc(Cl)cc2)o1 [Cmpd 15]
inhibition at 10 µM (S. MRSA): 20%
inhibition at 30 µM (S. MRSA): 63.2%
inhibition at 10 µM (B. Anthracis): 3.62%
inhibition at 30 µM (B. Anthracis; 30 μM): 42.2%

O=C1NC(=S)N(c2ccc(Cl)cc2)C(=O)/C1=C/c1ccc(-c2ccccc2C(=O)O)o1 [Cmpd 26]
inhibition at 3 µM (S. MRSA): 1.47%
inhibition at 10 µM (S. MRSA): 16.1%
inhibition at 30 µM (S. MRSA): 92.4%
inhibition at 3 µM (B. Anthracis): 2.32%
inhibition at 10 µM (B. Anthracis): 97%
inhibition at 30 µM (B. Anthracis; 30 μM): 100%

O=C1NC(=S)NC(=O)C1=Cc1ccc(-c2ccc(F)cc2)o1 [Cmpd 20]
inhibition at 10 µM (S. MRSA): 25.1%
inhibition at 30 µM (S. MRSA): 56%
inhibition at 10 µM (B. Anthracis): 17.1%
inhibition at 30 µM (B. Anthracis; 30 μM): 28.7%

CN1C(=O)/C(=C/c2ccc(-c3ccc(Br)c(Cl)c3)o2)C(=O)NC1=S [Cmpd 29]
inhibition at 10 µM (S. MRSA): 52.9%
inhibition at 30 µM (S. MRSA): 86.8%
inhibition at 10 µM (B. Anthracis): 80%
inhibition at 30 µM (B. Anthracis; 30 μM): 90.1%

O=C1Nc2ccc(Br)cc2/C1=C1/SC(=S)N(C(Cc2ccccc2)C(=O)O)C1=O (stereo not drawn) [Cmpd 13]
S. MRSA 10 μM (growth inhibition) (S. MRSA): −0.58
S. MRSA 30 μM (growth inhibition) (S. MRSA): 30.29
B. Anthracis 10 μM (growth inhibition) (B. Anthracis): 10.27
inhibition at 30 µM (B. Anthracis; 30 μM): 90.1%

O=C(O)[C@H](Cc1ccccc1)N1C(=O)/C(=C\c2ccc(-c3cc(Cl)cc(Cl)c3)o2)NC1=S [Cmpd 51]
inhibition at 3 µM (S. MRSA): -0.61%
inhibition at 10 µM (S. MRSA): -7.03%
inhibition at 30 µM (S. MRSA): 85.3%
inhibition at 3 µM (B. Anthracis): -0.16%
inhibition at 10 µM (B. Anthracis): -3.08%
inhibition at 30 µM (B. Anthracis; 30 μM): 99.3%

O=C(O)C(Cc1ccccc1)N1C(=O)/C(=C\c2ccc(-c3ccc(Cl)c(Cl)c3)o2)NC1=S (stereo not drawn) [Cmpd 42]
inhibition at 10 µM (S. MRSA): 98.7%
inhibition at 30 µM (S. MRSA): 94.5%
inhibition at 3 µM (B. Anthracis): 96.2%
inhibition at 10 µM (B. Anthracis): 99.5%
inhibition at 30 µM (B. Anthracis; 30 μM): 96.7%

O=C1NC(=S)NC(=O)C1=Cc1ccc(-c2cccc(C(=O)O)c2)o1 [Cmpd 28]
inhibition at 3 µM (S. MRSA): -0.74%
inhibition at 10 µM (S. MRSA): -2.21%
inhibition at 30 µM (S. MRSA): -3.68%
inhibition at 3 µM (B. Anthracis): -9.26%
inhibition at 10 µM (B. Anthracis): -3.09%
inhibition at 30 µM (B. Anthracis; 30 μM): -13.1%

COc1ccc(-c2nnc(-c3ccccc3)o2)cc1S(=O)(=O)Nc1cc2c(cc1C#N)OCO2 [Cmpd 7]
inhibition at 10 µM (S. MRSA): -7.79%
inhibition at 30 µM (S. MRSA): -1.62%
inhibition at 10 µM (B. Anthracis): 19.6%
inhibition at 30 µM (B. Anthracis; 30 μM): 74.9%

O=C1NC(=O)C(=Cc2ccc(Br)o2)C(=O)N1 [Cmpd 19]
inhibition at 3 µM (S. MRSA): -1.4%
inhibition at 10 µM (S. MRSA): 2%
inhibition at 30 µM (S. MRSA): 12.6%
inhibition at 3 µM (B. Anthracis): 3.33%
inhibition at 10 µM (B. Anthracis): 10.7%
inhibition at 30 µM (B. Anthracis; 30 μM): 12.9%

O=C(O)C(Cc1ccccc1)N1C(=O)/C(=C\c2ccc(-c3ccc(Br)c(Cl)c3)o2)NC1=S (stereo not drawn) [Cmpd 40]
inhibition at 3 µM (S. MRSA): 17.9%
inhibition at 10 µM (S. MRSA): 95.7%
inhibition at 30 µM (S. MRSA): 95.7%
inhibition at 3 µM (B. Anthracis): 98.1%
inhibition at 10 µM (B. Anthracis): 98.1%
inhibition at 30 µM (B. Anthracis; 30 μM): 98.1%

COc1ccc(-c2nc(N3CCOCC3)c3sc(=O)n(-c4ccccc4)c3n2)cc1OC [Cmpd 8]
inhibition at 10 µM (S. MRSA): -8.82%
inhibition at 30 µM (S. MRSA): 1.47%
inhibition at 10 µM (B. Anthracis): 5.32%
inhibition at 30 µM (B. Anthracis; 30 μM): 35.5%

O=C1NC(=S)NC(=O)C1=Cc1ccc(-c2ccc(Br)c(Cl)c2)o1 [Cmpd 9]
inhibition at 10 µM (S. MRSA): 19%
inhibition at 30 µM (S. MRSA): -4.22%
inhibition at 10 µM (B. Anthracis): 28%
inhibition at 30 µM (B. Anthracis; 30 μM): 88.4%

O=C(O)C(Cc1ccccc1)N1C(=O)/C(=C\c2ccc(-c3ccc(Cl)c(Cl)c3)s2)NC1=S (stereo not drawn) [Cmpd 50]
inhibition at 3 µM (S. MRSA): -14.6%
inhibition at 10 µM (S. MRSA): 14.3%
inhibition at 30 µM (S. MRSA): 35.6%
inhibition at 3 µM (B. Anthracis): 1.03%
inhibition at 10 µM (B. Anthracis): 108%
inhibition at 30 µM (B. Anthracis; 30 μM): 94.2%

O=C(O)C(Cc1ccccc1)N1C(=O)/C(=C\c2ccc(Br)s2)NC1=S (stereo not drawn) [Cmpd 37]
inhibition at 30 µM (S. MRSA): -6.27%
inhibition at 30 µM (B. Anthracis; 30 μM): 0%

O=C(O)C(Cc1ccccc1)N1C(=O)/C(=C\c2ccc(-c3ccc(Br)cc3)s2)NC1=S (stereo not drawn) [Cmpd 36]
inhibition at 3 µM (S. MRSA): -19.2%
inhibition at 10 µM (S. MRSA): 91.1%
inhibition at 30 µM (S. MRSA): 91.1%
inhibition at 3 µM (B. Anthracis): 76.9%
inhibition at 10 µM (B. Anthracis): 97.7%
inhibition at 30 µM (B. Anthracis; 30 μM): 96.7%

O=C1Nc2ccc(Br)cc2/C1=C1/SC(=S)N(C(Cc2ccccc2)C(=O)O)C1=O (stereo not drawn) [Cmpd 22]
S. MRSA 10 μM (growth inhibition) (S. MRSA): 10.74
S. MRSA 30 μM (growth inhibition) (S. MRSA): 86.76
B. Anthracis 10 μM (growth inhibition) (B. Anthracis): 83.27
B. Anthracis 30 μM (growth inhibition) (B. Anthracis; 30 μM): 90.11

O=C(O)CCCCCN1C(=O)/C(=C2/C(=O)Nc3ccc(Br)cc32)SC1=S [Cmpd 4]
inhibition at 10 µM (S. MRSA): 41.6%
inhibition at 30 µM (S. MRSA): 69.4%
inhibition at 10 µM (B. Anthracis): 52.3%
inhibition at 30 µM (B. Anthracis; 30 μM): 91.2%

O=C1NC(=S)S/C1=C/c1ccc(-c2ccc3c(c2)C(=O)NC3=O)o1 [Cmpd 3]
inhibition at 10 µM (S. MRSA): -0.59%
inhibition at 30 µM (S. MRSA): 61.2%
inhibition at 10 µM (B. Anthracis): 13.7%
inhibition at 30 µM (B. Anthracis; 30 μM): 87.5%

COc1ccc(-c2ccc(/C=C3/NC(=S)N(C(Cc4ccccc4)C(=O)O)C3=O)s2)cc1 (stereo not drawn) [Cmpd 33]
inhibition at 3 µM (S. MRSA): -2.94%
inhibition at 10 µM (S. MRSA): -13.2%
inhibition at 30 µM (S. MRSA): 18.5%
inhibition at 3 µM (B. Anthracis): -3.85%
inhibition at 10 µM (B. Anthracis): 0%
inhibition at 30 µM (B. Anthracis; 30 μM): 100%

O=C(O)C(Cc1ccccc1)N1C(=O)/C(=C\c2ccc(-c3ccc(Br)c(Cl)c3)s2)NC1=S (stereo not drawn) [Cmpd 41]
inhibition at 10 µM (S. MRSA): -7.45%
inhibition at 30 µM (S. MRSA): -0.89%
inhibition at 3 µM (B. Anthracis): 19.5%
inhibition at 10 µM (B. Anthracis): 8.15%
inhibition at 30 µM (B. Anthracis; 30 μM): 94.5%

O=C1NC(=S)NC(=O)C1=Cc1ccc(-c2cccc(Cl)c2)o1 [Cmpd 14]
inhibition at 10 µM (S. MRSA): 7.65%
inhibition at 30 µM (S. MRSA): 47.8%
inhibition at 10 µM (B. Anthracis): 3.62%
inhibition at 30 µM (B. Anthracis; 30 μM): 27.2%

CC(C)C(C(=O)O)N1C(=O)/C(=C2/C(=O)Nc3ccccc32)SC1=S (stereo not drawn) [Cmpd 5]
inhibition at 10 µM (S. MRSA): 15.9%
inhibition at 30 µM (S. MRSA): 40.6%
B. Anthracis 10 μM (growth inhibition) (B. Anthracis): −1.33
inhibition at 30 µM (B. Anthracis; 30 μM): 11.2%

O=C(O)C(Cc1ccccc1)N1C(=O)/C(=C\c2ccc(-c3ccc(OC(F)(F)F)cc3)o2)NC1=S (stereo not drawn) [Cmpd 43]
inhibition at 3 µM (S. MRSA): -1.32%
inhibition at 10 µM (S. MRSA): -6.26%
inhibition at 30 µM (S. MRSA): 95.2%
inhibition at 3 µM (B. Anthracis): 8.01%
inhibition at 10 µM (B. Anthracis): 96.7%
inhibition at 30 µM (B. Anthracis; 30 μM): 96.6%

COc1ccc(N2C(=O)/C(=C/c3ccc(Br)s3)C(=O)NC2=S)cc1 [Cmpd 11]
inhibition at 10 µM (S. MRSA): 14.8%
inhibition at 30 µM (S. MRSA): 42.6%
inhibition at 10 µM (B. Anthracis): 16.2%
inhibition at 30 µM (B. Anthracis; 30 μM): 47.3%

O=C1NC(=S)NC(=O)C1=Cc1ccc(Br)s1 [Cmpd 1]
inhibition at 10 µM (S. MRSA): 6.62%
inhibition at 30 µM (S. MRSA): 22.1%
inhibition at 10 µM (B. Anthracis): -12.4%
inhibition at 30 µM (B. Anthracis; 30 μM): 8.74%

O=C(O)C(Cc1ccccc1)N1C(=O)/C(=C\c2ccc(-c3ccc(Br)cc3)o2)NC1=S (stereo not drawn) [Cmpd 39]
inhibition at 3 µM (S. MRSA): -9.55%
inhibition at 10 µM (S. MRSA): 92.5%
inhibition at 30 µM (S. MRSA): 95.4%
inhibition at 3 µM (B. Anthracis): 72.6%
inhibition at 10 µM (B. Anthracis): 98.8%
inhibition at 30 µM (B. Anthracis; 30 μM): 98.8%

CN1C(=O)C(Cc2ccc(-c3ccc(Cl)c(Cl)c3)o2)C(=O)N(C)C1=O [Cmpd 23]
inhibition at 3 µM (S. MRSA): -8.09%
inhibition at 10 µM (S. MRSA): -7.35%
inhibition at 30 µM (S. MRSA): 0%
inhibition at 3 µM (B. Anthracis): -8.49%
inhibition at 10 µM (B. Anthracis): 1.54%
inhibition at 30 µM (B. Anthracis; 30 μM): 10.7%

O=C1NC(=O)N(Cc2ccc(F)cc2)C(=O)/C1=C/c1ccc(Br)s1 [Cmpd 10]
inhibition at 10 µM (S. MRSA): 14.8%
inhibition at 30 µM (S. MRSA): 62.2%
inhibition at 10 µM (B. Anthracis): 10.3%
inhibition at 30 µM (B. Anthracis; 30 μM): 68.2%

CCOc1cccc(N2C(=O)/C(=C/c3ccc(-c4cc(C(=O)O)ccc4Cl)o3)C(=O)NC2=S)c1 [Cmpd 27]
inhibition at 3 µM (S. MRSA): 0.74%
inhibition at 10 µM (S. MRSA): 8.82%
inhibition at 30 µM (S. MRSA): -0.74%
inhibition at 3 µM (B. Anthracis): -9.26%
inhibition at 10 µM (B. Anthracis): 0%
inhibition at 30 µM (B. Anthracis; 30 μM): -11.6%
